Test results reported in ChEMBL document CHEMBL5113513, “Selective Inhibitors of Medium-Size S1' Pocket Matrix Metalloproteinases: A Stepping Stone of Future Drug Discovery” (J Med Chem, 2022).
Blank lines part the entries; values can stand above or below the compound they belong to.

Columns and labels:
[1] = target: T1, Matrix metalloproteinase-14 (Homo sapiens, UniProt P50281); assay: Inhibition of human MMP-14 using Mca-Pro-Leu-Gly-Leu-Dpa-Ala-Arg-NH2 as substrate preincubated for 1 hr followed by susbstrate addition by fluorescent analysis
Neutrophil collagenase [2] = target: T2, Neutrophil collagenase (Homo sapiens, UniProt P22894); assay: Inhibition of human MMP-8 using Mca-Pro-Leu-Gly-Leu-Dpa-Ala-Arg-NH2 as substrate preincubated for 1 hr followed by susbstrate addition by fluorescent analysis
Interstitial collagenase [3] = target: T3, Interstitial collagenase (Homo sapiens, UniProt P03956); assay: Inhibition of human MMP-1 using Mca-Pro-Leu-Gly-Leu-Dpa-Ala-Arg-NH2 as substrate preincubated for 1 hr followed by susbstrate addition by fluorescent analysis
T3 sequence (P03956 whole entry): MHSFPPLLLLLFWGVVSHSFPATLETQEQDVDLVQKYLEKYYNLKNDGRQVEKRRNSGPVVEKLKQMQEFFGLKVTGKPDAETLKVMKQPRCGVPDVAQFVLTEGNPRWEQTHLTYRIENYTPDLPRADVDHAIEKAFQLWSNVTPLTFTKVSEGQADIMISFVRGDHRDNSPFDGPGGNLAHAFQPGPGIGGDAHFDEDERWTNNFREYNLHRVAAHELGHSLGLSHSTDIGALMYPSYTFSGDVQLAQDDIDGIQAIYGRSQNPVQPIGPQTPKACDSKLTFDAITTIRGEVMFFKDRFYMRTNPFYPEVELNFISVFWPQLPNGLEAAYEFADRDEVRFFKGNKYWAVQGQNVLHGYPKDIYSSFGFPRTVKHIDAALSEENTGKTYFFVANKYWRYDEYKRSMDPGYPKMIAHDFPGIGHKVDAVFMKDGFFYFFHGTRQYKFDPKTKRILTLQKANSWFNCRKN

[4] = target: T4, 72 kDa type IV collagenase (Homo sapiens, UniProt P08253); assay: Inhibition of human MMP-2 using Mca-Pro-Leu-Gly-Leu-Dpa-Ala-Arg-NH2 as substrate preincubated for 1 hr followed by susbstrate addition by fluorescent analysis
Interstitial collagenase [5] = target: T3, Interstitial collagenase; assay: Inhibition of MMP-1 (unknown origin) expressed in Escherichia coli BL21(DE3) and measured for 2 mins by enzymatic assay
[6] = Half life in cynomolgus monkey at 3 mg/kg, iv; type: ADME, organism-based, Macaca fascicularis; conditions: in vivo
[7] = Oral bioavailability in rat at 3 mg/kg; type: ADME, organism-based; conditions: in vivo
[8] = Plasma concentration in cynomolgus monkey at 3 mg/kg, iv measured upto 3 hrs; type: ADME, organism-based, Macaca fascicularis
[9] = Oral bioavailability in dog at 3 mg/kg; type: ADME, organism-based, Canis lupus familiaris; conditions: in vivo
[10] = Oral bioavailability in cynomolgus monkey at 3 mg/kg; type: ADME, organism-based, Macaca fascicularis; conditions: in vivo
B16-F10 = assay: Antitumor activity in mouse B16-F10 xenografted C57BL mouse lung metastasis model assessed as increase in life span measured per hour at 100 mg/kg, ip bid; type: functional
[11] = Plasma concentration in rat at 3 mg/kg, iv measured upto 3 hrs; type: ADME, organism-based
[12] = Metabolic stability in dog assessed as clearance at 3 mg/kg, iv; type: ADME, organism-based, Canis lupus familiaris; conditions: in vivo
[13] = Metabolic stability in cynomolgus monkey assessed as clearance at 3 mg/kg, iv; type: ADME, organism-based, Macaca fascicularis; conditions: in vivo
[14] = Half life in rat at 3 mg/kg, iv; type: ADME, organism-based; conditions: in vivo
[15] = Metabolic stability in rat assessed as clearance at 3 mg/kg, iv; type: ADME, organism-based; conditions: in vivo
[16] = Plasma concentration in dog at 3 mg/kg, iv measured upto 3 hrs; type: ADME, organism-based, Canis lupus familiaris
Neutrophil collagenase [17] = target: T2, Neutrophil collagenase; assay: Inhibition of recombinant human MMP-8 for 3 hrs using colorimetric substrate by ELISA
Interstitial collagenase [18] = target: T3, Interstitial collagenase; assay: Inhibition of recombinant human MMP-1 for 3 hrs using colorimetric substrate by ELISA
[19] = target: T4, 72 kDa type IV collagenase; assay: Inhibition of recombinant human MMP-2 for 3 hrs using colorimetric substrate by ELISA
[20] = target: Matrix metalloproteinase-9 (Homo sapiens, UniProt P14780); assay: Inhibition of MMP-9 (unknown origin) using Mca-Pro-Leu-Gly-Leu-Dpa-Ala-Arg-NH2 as substrate preincubated for 30 mins followed by substrate addition for 2 to 4 hrs by fluorimetric assay
[21] = target: T1, Matrix metalloproteinase-14; assay: Inhibition of MMP-14 (unknown origin) using Mca-Pro-Leu-Gly-Leu-Dpa-Ala-Arg-NH2 as substrate preincubated for 30 mins followed by substrate addition for 2 to 4 hrs by fluorimetric assay
Neutrophil collagenase [22] = target: T2, Neutrophil collagenase; assay: Inhibition of MMP-8 (unknown origin) using Mca-Pro-Leu-Gly-Leu-Dpa-Ala-Arg-NH2 as substrate preincubated for 30 mins followed by substrate addition for 2 to 4 hrs by fluorimetric assay
Interstitial collagenase [23] = target: T3, Interstitial collagenase; assay: Inhibition of MMP-1 (unknown origin) using 7-(methoxycoumarin-4yl)acetyl-Pro-Leu-Gly-Leu-(N-3-[2,4-dinitrophenyl]- L-2,3-diamino-propionyl)-Ala-Arg-NH2 as fluorogenic substrate for 45 mins by fluorogenic analysis

T2 sequence (P22894 whole entry): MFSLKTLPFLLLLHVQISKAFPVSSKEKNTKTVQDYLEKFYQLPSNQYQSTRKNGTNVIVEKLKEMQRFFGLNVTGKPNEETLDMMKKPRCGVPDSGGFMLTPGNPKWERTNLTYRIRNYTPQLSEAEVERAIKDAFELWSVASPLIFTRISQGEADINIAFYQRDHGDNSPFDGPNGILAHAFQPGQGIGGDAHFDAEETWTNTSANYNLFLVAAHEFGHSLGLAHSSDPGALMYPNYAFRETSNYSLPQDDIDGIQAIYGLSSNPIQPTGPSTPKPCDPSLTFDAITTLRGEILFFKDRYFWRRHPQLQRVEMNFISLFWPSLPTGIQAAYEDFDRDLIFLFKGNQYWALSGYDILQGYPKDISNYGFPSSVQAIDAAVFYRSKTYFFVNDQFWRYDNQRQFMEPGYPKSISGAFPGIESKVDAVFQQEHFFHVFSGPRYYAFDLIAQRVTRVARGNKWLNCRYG
T4 sequence (P08253 whole entry): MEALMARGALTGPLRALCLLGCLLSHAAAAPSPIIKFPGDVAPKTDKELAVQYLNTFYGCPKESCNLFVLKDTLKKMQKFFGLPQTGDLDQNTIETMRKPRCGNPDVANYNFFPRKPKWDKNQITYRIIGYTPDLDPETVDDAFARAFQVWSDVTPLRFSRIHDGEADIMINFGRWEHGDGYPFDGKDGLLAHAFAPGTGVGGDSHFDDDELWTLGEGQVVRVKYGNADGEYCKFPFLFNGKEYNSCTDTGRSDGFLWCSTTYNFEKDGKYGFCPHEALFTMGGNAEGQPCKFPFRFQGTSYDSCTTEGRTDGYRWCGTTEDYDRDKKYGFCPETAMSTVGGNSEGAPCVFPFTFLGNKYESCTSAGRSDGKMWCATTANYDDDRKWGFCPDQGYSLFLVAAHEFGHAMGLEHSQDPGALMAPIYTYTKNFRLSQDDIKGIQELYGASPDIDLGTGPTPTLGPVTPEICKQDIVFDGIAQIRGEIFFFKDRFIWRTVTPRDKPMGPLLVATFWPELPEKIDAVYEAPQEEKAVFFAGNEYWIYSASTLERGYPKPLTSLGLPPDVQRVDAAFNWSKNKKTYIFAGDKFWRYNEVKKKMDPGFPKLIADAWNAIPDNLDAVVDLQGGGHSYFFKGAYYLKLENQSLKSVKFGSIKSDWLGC
Sequence of Matrix metalloproteinase-9 (P14780 whole entry): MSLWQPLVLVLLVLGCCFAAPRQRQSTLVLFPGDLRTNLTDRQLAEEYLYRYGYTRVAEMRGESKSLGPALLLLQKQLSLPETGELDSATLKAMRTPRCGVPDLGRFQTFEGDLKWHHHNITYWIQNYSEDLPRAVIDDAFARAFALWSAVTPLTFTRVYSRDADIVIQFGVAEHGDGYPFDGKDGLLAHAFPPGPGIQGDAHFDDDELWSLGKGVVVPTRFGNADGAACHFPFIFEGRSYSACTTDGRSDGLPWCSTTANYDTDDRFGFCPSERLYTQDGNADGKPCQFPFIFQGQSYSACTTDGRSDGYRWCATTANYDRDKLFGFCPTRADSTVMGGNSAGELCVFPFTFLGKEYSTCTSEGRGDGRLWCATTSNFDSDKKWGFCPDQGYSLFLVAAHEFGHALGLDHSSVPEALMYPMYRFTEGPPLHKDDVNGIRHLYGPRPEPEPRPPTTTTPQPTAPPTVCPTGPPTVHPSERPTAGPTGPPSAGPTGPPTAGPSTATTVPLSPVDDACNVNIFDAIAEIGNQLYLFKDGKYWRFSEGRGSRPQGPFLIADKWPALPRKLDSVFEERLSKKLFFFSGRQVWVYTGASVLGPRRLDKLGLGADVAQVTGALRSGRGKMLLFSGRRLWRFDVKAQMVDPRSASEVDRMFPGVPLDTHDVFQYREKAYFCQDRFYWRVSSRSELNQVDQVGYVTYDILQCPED

SMILES: CC1(C)NC(=O)N(C[C@@H](COc2ccc(-c3ccc(OC(F)(F)F)cc3)cc2)N(O)C=O)C1=O
half-life [6]: 21 h
bioavailability [7]: 84%
concentration at 3 h [8]: 1500 ng/mL
bioavailability [9]: 84%
bioavailability [10]: 84%
Activity (B16-F10): 46%
concentration at 3 h [11]: 1500 ng/mL
clearance [12]: 1.83 mL/min/kg
clearance [13]: 1.13 mL/min/kg
half-life [14]: 8 h
clearance [15]: 2 mL/min/kg
concentration at 3 h [16]: 1500 ng/mL

SMILES: CC(C)CNC(=O)P(=O)(O)O
IC50 (Neutrophil collagenase [17]): 1 µM
IC50 (Interstitial collagenase [18]): 40 µM
IC50 [19]: > 100 µM

SMILES: O=P(O)(O)C(NS(=O)(=O)c1ccc(-c2ccc(Cl)cc2)cc1)P(=O)(O)O
IC50 [20]: > 1 µM
IC50 [21]: > 1 µM
IC50 (Neutrophil collagenase [22]): 0.32 µM

Further lines, results first:

IC50 [1]: > 2 µM
IC50 (Neutrophil collagenase [2]): > 2 µM
IC50 (Interstitial collagenase [3]): > 50 µM
IC50 [4]: > 2 µM
SMILES: Cc1cc(=O)c(O)c(C(=O)NCc2ccc(-c3ccc(-c4ccccc4)cc3)cc2)o1

IC50 (Interstitial collagenase [5]): 50 µM
SMILES: O=C(NO)C1c2ccc(O)cc2CCN1S(=O)(=O)c1cc(Cl)ccc1Cl (centres undefined)

Ki (Interstitial collagenase [23]): > 500 µM
SMILES: C=C[C@@H]1OC(Cc2ccccc2)=N[C@H]1CO
